We go through 11 molecules from ChEMBL document CHEMBL1201862, “PubChem BioAssay data set” (2004).

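Each compound was tested at five concentrations against cells in 96-well plates for 48 hours. GI50: concentration for 50% inhibition of growth.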 Active and inactive are the calls of the source. No stated cut-off is given here; in the data, active = GI50 up to about 1.1 µM and inactive = higher.

Holding throughout (assay): NCI tumour cell line growth inhibition, 48 h
Assay [1] deals with 786-0.
The subject of assay [2] is A549.
Assay [3] concerns EKVX.
Assay [4] deals with HCC 2998.
Assay [5] relates to HCT-15.
Assay [6] has as its system HOP-92.
For assay [7], the system named is Hs-578T.
Assay [8] relates to IGROV-1.
Assay [9] has as its system K562.
The subject of assay [10] is MDA-MB-231.
Assay [11] has as its system MDA-MB-435.
In assay [12] the test system is NCI-H23.
Assay [13] concerns OVCAR-4.
Assay [14] concerns PC-3.
For assay [15], the system named is SK-MEL-28.
Assay [16] relates to SK-MEL-2.
Assay [17] deals with SK-OV-3.
Assay [18] deals with T47D.
Assay [19] relates to UACC-257.

Take `Clc1cccc(Cl)c1/C=N/C12CC3CC(CC(C3)C1)C2`: the GI50 in assay [1] is > 10 µM (inactive); in [2], > 10 µM (inactive); in assay [3], > 10 µM (inactive); in assay [4], > 10 µM (inactive); in [5], greater than 10 µM; in assay [6] it was > 10 µM (inactive). The GI50 in assay [7], in assay [8], in [9], in assay [10], in assay [11] and in assay [12] was > 10 µM (inactive) throughout. For the same molecule, the GI50 in assay [13], in assay [14], in [15], in assay [16], in [17] and in [18] was > 10 µM (inactive) throughout. In [19], the GI50 was > 10 µM (inactive).
`CC1C(=NO)C(C)C(c2ccccc2)N(N=O)C1c1ccccc1` (centres undefined): the GI50 was 19.6 µM (inactive) in assay [1]; 17.8 µM (inactive) in assay [2]; 22.9 µM (inactive) in [3]; 18.4 µM (inactive) in [4]; 16.6 µM in assay [5]; 19.7 µM (inactive) in [6]. Moreover, the GI50 in [7] is 16.4 µM (inactive); in assay [8], 19.6 µM (inactive); in [9], 32.7 µM (inactive); in assay [10], 16.1 µM (inactive); in [11], 21.3 µM (inactive); in assay [12], 24.8 µM (inactive). Besides, the GI50 in assay [13] was 19.6 µM (inactive); in [14], 25.4 µM (inactive); in assay [15], 16.7 µM (inactive); in assay [16], 18.7 µM (inactive); in assay [17] it was 4.72 µM (inactive); in [18], 18.7 µM (inactive). In addition, the GI50 in assay [19] is 23.4 µM (inactive).
On to `COc1ccc2c(c1)CCN=C2c1ccccc1CCCCl`, for which the GI50 in assay [1] is 38.4 µM (inactive); in [2], 24.2 µM (inactive); in assay [3], 17.7 µM (inactive); in assay [4] it was 6.25 µM (inactive); in assay [5], 23.6 µM; in assay [6], 26.7 µM (inactive). Further, the GI50 was 16.5 µM (inactive) in assay [7]; 20.1 µM (inactive) in assay [8]; 5.62 µM (inactive) in assay [9]; 19 µM (inactive) in assay [10]; 38.7 µM (inactive) in [11]; 4.85 µM (inactive) in [12]. Also, the GI50 is 13.7 µM (inactive) in assay [13]; 17 µM (inactive) in [14]; > 100 µM (inactive) in [15]; 28 µM (inactive) in assay [16]; 31.5 µM (inactive) in assay [17]; 10.8 µM (inactive) in assay [18]. Moreover, the GI50 in assay [19] is 23.7 µM (inactive).
Consider `COc1cc2c(cc1O)C(c1cc(O)c(O)c(OC)c1)C(O)(C(=O)O)C(CO)C2O` (centres undefined), for which the GI50 in assay [1] is 16.1 µM (inactive); in [2], > 100 µM (inactive); in [3] it was 20.7 µM (inactive); in assay [4], > 100 µM (inactive); in assay [5] it was greater than 100 µM; in assay [6], > 100 µM (inactive). Moreover, the GI50 in assay [7] was > 100 µM (inactive); in assay [8], > 100 µM (inactive); in [9] it was 47 µM (inactive); in [10], 40.8 µM (inactive); in assay [11], 17.6 µM (inactive); in [12], > 100 µM (inactive). For the same molecule, the GI50 in assay [13], in assay [14], in assay [15], in assay [16], in assay [17] and in assay [18] was > 100 µM (inactive) throughout. Further, in assay [19], the GI50 is > 100 µM (inactive).
For the molecule `CCC(=O)c1cc(C(=O)C(=S)SC)cc(C(=O)C(=S)SC)c1`, the GI50 in assay [1] is > 85.7 µM (inactive); in assay [2] it was > 100 µM (inactive); in assay [3] it was > 100 µM (inactive); in assay [4], > 100 µM (inactive); in assay [5] it was greater than 60 µM; in assay [6], > 59.7 µM (inactive). Also, the GI50 in assay [7] was > 49.7 µM (inactive); in assay [8], > 100 µM (inactive); in assay [9], 41.9 µM (inactive); in assay [10], > 100 µM (inactive); in [11], > 100 µM (inactive); in [12] it was > 76.7 µM (inactive). Besides, the GI50 in assay [13], in assay [14], in assay [15], in assay [16], in [17] and in [18] was > 100 µM (inactive) each time. For the same molecule, in assay [19], the GI50 was > 100 µM (inactive).
Turning to `c1ccc2c(c1)nnn2C1CCCCO1` (centres undefined), the GI50 in assay [1] was > 100 µM (inactive); in [2] it was > 100 µM (inactive); in assay [3], > 100 µM (inactive); in [4], > 100 µM (inactive); in assay [5], greater than 100 µM; in [6] it was > 100 µM (inactive). Moreover, the GI50 in assay [7], in assay [8], in [9], in [10], in [11] and in [12] was > 100 µM (inactive) throughout. Besides, the GI50 in assay [13], in assay [14], in assay [15], in [16], in assay [17] and in [18] was > 100 µM (inactive) throughout. For the same molecule, the GI50 in [19] is > 100 µM (inactive).
In the case of `O=[N+]([O-])c1ccc2c(c1)C1=NN(c3ccccc3)C(c3ccccc3Br)C1CCC2` (centres undefined), the GI50 in assay [1] was > 50 µM (inactive); in assay [2], 28.1 µM (inactive); in assay [3], 20.5 µM (inactive); in assay [4], 21.9 µM (inactive); in [5], 13.3 µM; in [6], 14.6 µM (inactive). Besides, the GI50 in assay [7] is 48.1 µM (inactive); in [8] it was 27.5 µM (inactive); in [9], 4.53 µM (inactive); in [10], 36.3 µM (inactive); in assay [11], 15 µM (inactive); in assay [12], 18.7 µM (inactive). In addition, the GI50 was 19.9 µM (inactive) in assay [13]; 31.2 µM (inactive) in [14]; 21.1 µM (inactive) in [15]; 24.7 µM (inactive) in assay [16]; > 50 µM (inactive) in assay [17]; 10.2 µM (inactive) in assay [18]. Further, in assay [19], the GI50 was 19 µM (inactive).
Regarding `C/C(=N\Nc1nc2cc(F)ccc2s1)c1ccccn1`, the GI50 in assay [1] is 0.0439 µM (active); in assay [2] it was 0.26 µM (active); in [3], < 0.0141 µM (active); in assay [4], 1.92 µM (inactive); in assay [5], less than 0.022 µM; in [6], 0.0352 µM (active). For the same molecule, the GI50 in assay [7] was 0.335 µM (active); in assay [8] it was 0.0198 µM (active); in assay [9] it was < 0.0147 µM (active); in assay [10], 0.0389 µM (active); in [11] it was 0.303 µM (active); in assay [12], 0.0352 µM (active). In addition, the GI50 is 1.06 µM (active) in assay [13]; 0.0395 µM (active) in assay [14]; 0.294 µM (active) in assay [15]; 1.54 µM (inactive) in assay [16]; 0.0953 µM (active) in assay [17]; < 0.01 µM (active) in assay [18]. Besides, the GI50 in assay [19] is < 0.0182 µM (active).
Regarding `COc1ccccc1NC(=S)N/N=C(/c1ccccc1)c1ccccn1`, the GI50 is 0.103 µM (active) in [1]; 0.141 µM (active) in assay [2]; 0.0968 µM (active) in assay [3]; 5.97 µM (inactive) in assay [4]; 0.045 µM in [5]; 0.522 µM (active) in assay [6]. Also, the GI50 is 7.05 µM (inactive) in [7]; 0.0225 µM (active) in [8]; < 0.0128 µM (active) in [9]; 0.0214 µM (active) in assay [10]; 0.356 µM (active) in [11]; < 0.013 µM (active) in assay [12]. Moreover, the GI50 in assay [13] was 0.71 µM (active); in [14], < 0.0142 µM (active); in assay [15], 1.39 µM (inactive); in assay [16], 4.4 µM (inactive); in assay [17] it was 0.0771 µM (active); in [18], < 0.0426 µM (active). In addition, the GI50 in assay [19] was < 0.0167 µM (active).
Regarding `Nc1ncnc2c1ncn2C1CCC(COS(N)(=O)=O)C1` (centres undefined), the GI50 in assay [1] is > 100 µM (inactive); in assay [2], > 100 µM (inactive); in assay [3], > 100 µM (inactive); in assay [4], > 100 µM (inactive); in assay [5], greater than 100 µM; in assay [6], > 100 µM (inactive). Also, the GI50 in assay [7] is 65.5 µM (inactive); in [8] it was > 100 µM (inactive); in [9], > 100 µM (inactive); in assay [10], > 100 µM (inactive); in [11], > 100 µM (inactive); in assay [12], > 100 µM (inactive). Also, the GI50 in [13] is > 100 µM (inactive); in [14], > 100 µM (inactive); in assay [15], > 100 µM (inactive); in assay [16], > 100 µM (inactive); in assay [17] it was > 100 µM (inactive); in assay [18], 93.5 µM (inactive). Moreover, the GI50 in [19] was > 100 µM (inactive).
For the molecule `N/N=C(/CC(O)(C(F)(F)F)C(F)(F)F)c1ccccc1`, the GI50 was > 10 µM (inactive) in [1]; > 10 µM (inactive) in assay [2]; > 10 µM (inactive) in [3]; > 10 µM (inactive) in assay [4]; greater than 10 µM in assay [5]; > 10 µM (inactive) in assay [6]. In addition, the GI50 in assay [7], in [8], in assay [9], in assay [10], in assay [11] and in assay [12] was > 10 µM (inactive) throughout. Besides, the GI50 in assay [13], in assay [14], in assay [15], in assay [16], in assay [17] and in assay [18] was > 10 µM (inactive) in each case. For the same molecule, in [19], the GI50 is > 10 µM (inactive).
